From publication PMC9482650, “Quantitative fragmentomics allow affinity mapping of interactomes” (Nature Communications, 2022)
Where a chain is given by its changes, count along the chain named. Read-outs that look alike come from different tables or passages of the source. Ends that are not written are not given here.

Tests used:
Type in all cases: binding
MAGI1_2 PDZ = MAGI1_2 PDZ (Homo sapiens, UniProt Q96QZ7); assay: biochemical
DLG2_3 PDZ = molecular target: T1, DLG2_3 PDZ (Homo sapiens, UniProt Q15700); assay: Holdup assay
T1 sequence (Q15700 421-501 limits assumed): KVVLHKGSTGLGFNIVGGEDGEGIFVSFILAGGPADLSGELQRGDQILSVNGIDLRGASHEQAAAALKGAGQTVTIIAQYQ

DLG4_1 PDZ = DLG4_1 PDZ (Homo sapiens, UniProt P78352); assay: Holdup assay
MAGI2_2 PDZ = MAGI2_2 PDZ (Homo sapiens, UniProt Q86UL8); assay: Holdup assay
ARHGEF12 PDZ = molecular target: T2, ARHGEF12 PDZ (Homo sapiens, UniProt Q9NZN5); assay: Holdup assay
T2 sequence (Q9NZN5 72-151 limits assumed): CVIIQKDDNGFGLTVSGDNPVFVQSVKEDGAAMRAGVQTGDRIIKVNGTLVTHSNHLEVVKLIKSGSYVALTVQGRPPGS

SCRIB_1 PDZ = SCRIB_1 PDZ (Homo sapiens, UniProt Q14160); assay: Holdup assay
SYNJ2BP PDZ = molecular target: T3, SYNJ2BP PDZ (Homo sapiens, UniProt P57105); assay: Holdup assay
T3 sequence (P57105 13-100 limits assumed): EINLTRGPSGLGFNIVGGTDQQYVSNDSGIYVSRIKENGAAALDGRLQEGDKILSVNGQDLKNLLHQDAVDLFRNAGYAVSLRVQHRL

NHERF3_1 PDZ = molecular target: T4, NHERF3_1 PDZ (Homo sapiens, UniProt Q5T2W1); assay: Holdup assay
T4 sequence (Q5T2W1 9-90 limits assumed): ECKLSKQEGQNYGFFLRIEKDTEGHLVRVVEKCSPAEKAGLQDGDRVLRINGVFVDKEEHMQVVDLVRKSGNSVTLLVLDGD

DLG3_3 PDZ = molecular target: T5, DLG3_3 PDZ (Homo sapiens, UniProt Q92796); assay: Holdup assay
T5 sequence (Q92796 379-465 limits assumed): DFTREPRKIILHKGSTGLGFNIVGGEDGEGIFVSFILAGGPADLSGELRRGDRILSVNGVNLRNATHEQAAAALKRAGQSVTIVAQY

SCRIB_3 PDZ = molecular target: T6, SCRIB_3 PDZ (Homo sapiens, UniProt Q14160); assay: Holdup assay
T6 sequence (Q14160 1004-1093 limits assumed): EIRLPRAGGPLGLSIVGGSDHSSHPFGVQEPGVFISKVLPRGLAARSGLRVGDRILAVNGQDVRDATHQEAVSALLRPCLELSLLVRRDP

SNTB1 PDZ = molecular target: T7, SNTB1 PDZ (Homo sapiens, UniProt Q13884); assay: Holdup assay
T7 sequence (Q13884 112-195 limits assumed): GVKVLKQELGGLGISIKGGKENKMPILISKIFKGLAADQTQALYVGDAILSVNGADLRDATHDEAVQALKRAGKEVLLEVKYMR

DLG4_3 PDZ = DLG4_3 PDZ (Homo sapiens, UniProt P78352); assay: Holdup assay
PTPN3 PDZ = molecular target: T8, PTPN3 PDZ (Homo sapiens, UniProt P26045); assay: Holdup assay
T8 sequence (P26045 510-582 limits assumed): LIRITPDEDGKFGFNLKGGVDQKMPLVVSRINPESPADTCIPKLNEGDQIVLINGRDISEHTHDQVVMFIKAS

NOS1 PDZ = NOS1 PDZ (Homo sapiens, UniProt P29475); assay: Holdup assay
DLG1_2 PDZ = DLG1_2 PDZ (Homo sapiens, UniProt Q12959); assay: Holdup assay
PDZRN4_1 PDZ = molecular target: T9, PDZRN4_1 PDZ (Homo sapiens, UniProt Q6ZMN7); assay: Holdup assay
T9 sequence (Q6ZMN7 224-314 limits assumed): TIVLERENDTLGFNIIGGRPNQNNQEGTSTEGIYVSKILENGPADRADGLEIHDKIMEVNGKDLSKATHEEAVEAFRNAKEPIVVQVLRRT

MAGI2_4 PDZ = MAGI2_4 PDZ (Homo sapiens, UniProt Q86UL8); assay: Holdup assay
LAP2 PDZ = LAP2 PDZ (Homo sapiens, UniProt Q96RT1); assay: Holdup assay
LIN7B PDZ = molecular target: T10, LIN7B PDZ (Homo sapiens, UniProt Q9HAP6); assay: Holdup assay
T10 sequence (Q9HAP6 93-175 limits assumed): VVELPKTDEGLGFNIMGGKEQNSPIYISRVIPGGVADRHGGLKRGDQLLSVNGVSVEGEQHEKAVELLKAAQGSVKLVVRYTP

MAGI3_2 PDZ = MAGI3_2 PDZ (Homo sapiens, UniProt Q5TCQ9); assay: Holdup assay
LIN7C PDZ = molecular target: T11, LIN7C PDZ (Homo sapiens, UniProt Q9NUP9); assay: Holdup assay
T11 sequence (Q9NUP9 93-175 limits assumed): T10 sequence (Q9HAP6 93-175 limits assumed) with D8E, V30I, V35I, Q60H, S74K

DLG3_2 PDZ = molecular target: T12, DLG3_2 PDZ (Homo sapiens, UniProt Q92796); assay: Holdup assay
T12 sequence (Q92796 226-311 limits assumed): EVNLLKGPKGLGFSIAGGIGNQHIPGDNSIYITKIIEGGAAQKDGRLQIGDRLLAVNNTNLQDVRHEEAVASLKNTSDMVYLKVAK

ARHGEF11 PDZ = molecular target: T13, ARHGEF11 PDZ (Homo sapiens, UniProt O15085); assay: Holdup assay
T13 sequence (O15085 47-126 limits assumed): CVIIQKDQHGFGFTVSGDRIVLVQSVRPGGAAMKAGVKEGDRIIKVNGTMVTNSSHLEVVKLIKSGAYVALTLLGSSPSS

SNX27 PDZ = SNX27 PDZ (Homo sapiens, UniProt Q96L92); assay: Holdup assay; settings: composite holdup affinity; 0.00=below quantification threshold; read-out: COMP pKd (converted)
MAGI2_5 PDZ = MAGI2_5 PDZ (Homo sapiens, UniProt Q86UL8); assay: Holdup assay
PDZD7_3 PDZ = molecular target: T14, PDZD7_3 PDZ (Homo sapiens, UniProt Q9H5P4); assay: Holdup assay
T14 sequence (Q9H5P4 862-934 limits assumed): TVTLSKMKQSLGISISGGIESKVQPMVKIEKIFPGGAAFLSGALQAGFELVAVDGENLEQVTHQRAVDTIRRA

[1] = composite holdup affinity, 0.00=below quantification threshold, read-out: COMP pKd (converted)

DLG1_2 PDZ, sequence (Q12959 319-405 limits assumed): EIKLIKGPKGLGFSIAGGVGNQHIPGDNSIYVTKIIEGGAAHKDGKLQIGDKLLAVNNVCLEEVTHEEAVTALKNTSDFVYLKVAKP
MAGI2_4 PDZ, sequence (Q86UL8 778-860 limits assumed): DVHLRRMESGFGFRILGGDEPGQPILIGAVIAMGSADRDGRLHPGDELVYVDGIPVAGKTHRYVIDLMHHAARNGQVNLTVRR
LAP2 PDZ, sequence (Q96RT1 1321-1410 limits assumed): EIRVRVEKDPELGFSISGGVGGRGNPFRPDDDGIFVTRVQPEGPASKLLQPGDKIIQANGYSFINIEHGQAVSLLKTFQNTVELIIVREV
MAGI3_2 PDZ, sequence (Q5TCQ9 410-492 limits assumed): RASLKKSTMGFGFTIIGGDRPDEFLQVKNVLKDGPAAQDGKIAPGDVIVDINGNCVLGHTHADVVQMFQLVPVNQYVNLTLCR
MAGI2_2 PDZ, sequence (Q86UL8 426-510 limits assumed): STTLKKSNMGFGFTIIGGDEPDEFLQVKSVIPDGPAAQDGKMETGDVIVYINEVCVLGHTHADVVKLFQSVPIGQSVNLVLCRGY
NOS1 PDZ, sequence (P29475 17-99 limits assumed): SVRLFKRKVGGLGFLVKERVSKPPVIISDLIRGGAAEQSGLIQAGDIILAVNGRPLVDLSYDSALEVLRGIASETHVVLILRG
DLG4_3 PDZ, sequence (P78352 313-393 limits assumed): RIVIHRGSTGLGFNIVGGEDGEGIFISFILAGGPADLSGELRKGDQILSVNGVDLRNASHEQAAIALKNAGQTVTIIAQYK
SCRIB_1 PDZ, sequence (Q14160 728-815 limits assumed): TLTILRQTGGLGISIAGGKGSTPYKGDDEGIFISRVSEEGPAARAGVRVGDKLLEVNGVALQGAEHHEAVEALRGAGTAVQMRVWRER
DLG4_1 PDZ, sequence (P78352 65-151): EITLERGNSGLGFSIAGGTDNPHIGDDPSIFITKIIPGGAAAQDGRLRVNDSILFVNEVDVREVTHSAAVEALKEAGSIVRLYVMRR
MAGI2_5 PDZ, sequence (Q86UL8 920-1010 limits assumed): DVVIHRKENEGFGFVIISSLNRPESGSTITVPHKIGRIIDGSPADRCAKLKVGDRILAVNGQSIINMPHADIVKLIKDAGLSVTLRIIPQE
MAGI1_2 PDZ, sequence (Q96QZ7 472-554 limits assumed): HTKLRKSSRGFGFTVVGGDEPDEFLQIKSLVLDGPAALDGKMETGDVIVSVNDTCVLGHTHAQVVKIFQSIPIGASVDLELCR

## CC(C)C[C@H](NC(=O)[C@@H](N)CCCNC(=N)N)C(=O)N[C@@H](CCC(N)=O)C(=O)N[C@@H](CCCNC(=N)N)C(=O)N[C@@H](CCCNC(=N)N)C(=O)N[C@@H](CCCNC(=N)N)C(=O)N[C@@H](CCC(=O)O)C(=O)N[C@H](C(=O)N[C@@H](CCC(N)=O)C(=O)N[C@H](C(=O)O)C(C)C)[C@@H](C)O [HPV18-E6]
MAGI1_2 PDZ
  Kd: 1.07 µM
DLG2_3 PDZ
  Kd: 8.71 µM
DLG4_1 PDZ
  Kd: 7.76 µM
MAGI2_2 PDZ
  Kd: 6.92 µM
ARHGEF12 PDZ
  Kd: 123 µM
SCRIB_1 PDZ
  Kd: 55 µM
SYNJ2BP PDZ
  Kd: 4.47 µM
NHERF3_1 PDZ
  Kd: 89.1 µM
DLG3_3 PDZ
  Kd: 3.63 µM
SCRIB_3 PDZ
  Kd: 14.5 µM
SNTB1 PDZ
  Kd: 5.89 µM
DLG4_3 PDZ
  Kd: 1.82 µM
PTPN3 PDZ
  Kd: 32.4 µM
NOS1 PDZ
  Kd: 195 µM
DLG1_2 PDZ
  Kd: 1.66 µM
PDZRN4_1 PDZ
  Kd: 33.1 µM
MAGI2_4 PDZ
  Kd: 52.5 µM
LAP2 PDZ
  Kd: 245 µM
LIN7B PDZ
  Kd: 263 µM
MAGI3_2 PDZ
  Kd: 2.75 µM
LIN7C PDZ
  Kd: 67.6 µM
DLG3_2 PDZ
  Kd: 3.47 µM
ARHGEF11 PDZ
  Kd: 219 µM
SNX27 PDZ
  Kd: 28.2 µM
MAGI2_5 PDZ
  Kd: 166 µM
PDZD7_3 PDZ
  Kd: 105 µM

## SKPTRRETEV [HPV35-E6]
MAGI1_2 PDZ; [1]
  Kd: 7.41 µM
DLG2_3 PDZ; [1]
  Kd: 4.9 µM
DLG4_1 PDZ; [1]
  Kd: 8.13 µM
MAGI2_2 PDZ; [1]
  Kd: 11.7 µM
ARHGEF12 PDZ; [1]
  Kd: 87.1 µM
SCRIB_1 PDZ; [1]
  Kd: 27.5 µM
SYNJ2BP PDZ; [1]
  Kd: 2.04 µM
NHERF3_1 PDZ; [1]
  Kd: 91.2 µM
DLG3_3 PDZ; [1]
  Kd: 6.61 µM
SCRIB_3 PDZ; [1]
  Kd: 12.9 µM
SNTB1 PDZ; [1]
  Kd: 20.9 µM
DLG4_3 PDZ; [1]
  Kd: 6.31 µM
PTPN3 PDZ; [1]
  Kd: 11.7 µM
NOS1 PDZ; [1]
  Kd: 182 µM
DLG1_2 PDZ; [1]
  Kd: 2.29 µM
PDZRN4_1 PDZ; [1]
  Kd: 41.7 µM
MAGI2_4 PDZ; [1]
  Kd: 45.7 µM
LAP2 PDZ; [1]
  Kd: 204 µM
LIN7B PDZ; [1]
  Kd: 324 µM
MAGI3_2 PDZ; [1]
  Kd: 4.07 µM
LIN7C PDZ; [1]
  Kd: 174 µM
DLG3_2 PDZ; [1]
  Kd: 3.24 µM
ARHGEF11 PDZ; [1]
  Kd: 77.6 µM
SNX27 PDZ
  Kd: 21.9 µM
MAGI2_5 PDZ; [1]
  Kd: 66.1 µM
PDZD7_3 PDZ; [1]
  Kd: 50.1 µM

## SRRPRTETQV [HPV31-E6]
MAGI1_2 PDZ; [1]
  Kd: 2.88 µM
DLG2_3 PDZ; [1]
  Kd: 7.94 µM
DLG4_1 PDZ; [1]
  Kd: 9.55 µM
MAGI2_2 PDZ; [1]
  Kd: 0.417 µM
ARHGEF12 PDZ; [1]
  Kd: 138 µM
SCRIB_1 PDZ; [1]
  Kd: 25.1 µM
SYNJ2BP PDZ; [1]
  Kd: 3.89 µM
NHERF3_1 PDZ; [1]
  Kd: 47.9 µM
DLG3_3 PDZ; [1]
  Kd: 7.94 µM
SCRIB_3 PDZ; [1]
  Kd: 27.5 µM
SNTB1 PDZ; [1]
  Kd: 70.8 µM
DLG4_3 PDZ; [1]
  Kd: 7.94 µM
PTPN3 PDZ; [1]
  Kd: 21.9 µM
NOS1 PDZ; [1]
  Kd: 123 µM
DLG1_2 PDZ; [1]
  Kd: 1.62 µM
PDZRN4_1 PDZ; [1]
  Kd: 64.6 µM
MAGI2_4 PDZ; [1]
  Kd: 33.1 µM
LAP2 PDZ; [1]
  Kd: 126 µM
LIN7B PDZ; [1]
  Kd: 209 µM
MAGI3_2 PDZ; [1]
  Kd: 1.35 µM
LIN7C PDZ; [1]
  Kd: 117 µM
DLG3_2 PDZ; [1]
  Kd: 3.89 µM
ARHGEF11 PDZ; [1]
  Kd: 263 µM
SNX27 PDZ
  Kd: 22.9 µM
MAGI2_5 PDZ; [1]
  Kd: 129 µM
PDZD7_3 PDZ; [1]
  Kd: 195 µM
